Measured values taken from paper PMC3072408 (PLoS ONE, 2011).
Entries after “also recorded” stand apart in the source; their conditions may differ.

Experiments:
ASAL = biological target: T1, ASAL (Allium sativum, UniProt P83886); type: binding; conditions: read-out: Dissociation constant (Kd)
T1 construct: gene LECASAL; native 25-kDa homodimer
T1 sequence (P83886 31-140): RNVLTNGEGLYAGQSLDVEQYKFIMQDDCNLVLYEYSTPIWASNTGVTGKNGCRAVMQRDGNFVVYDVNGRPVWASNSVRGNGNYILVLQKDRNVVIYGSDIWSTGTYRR

mASAL = biological target: T2, mASAL (Allium sativum, UniProt P83886, G129D/INS129NSNN); test: biochemical
T2 construct: gene LECASAL
Description: Dissociation Constant (Kd) of mannose-bound complex using fluorescence spectroscopy
mASAL and ASAL were separately incubated at 25°C on a Hitachi F-7000 spectrofluorimeter using a Sigma cuvette (volume: 1 ml; pathlength: 1 cm). The solutions were titrated with 10 mM mannose in phosphate buffer (pH 7.2) by adding a small aliquot at a time. Following each addition, the solution was stirred using a magnetic stirrer for 1 min and the fluorescence emission spectrum was recorded between 300 and 400 nm using 295 nm as the excitation wavelength. The excitation and emission band passes were each 5 nm. […] The equation for single-site ligand binding measured through changes in the spectroscopic signal [20] is given by [drawing 1] (1) where ΔF represents the increase or decrease in fluorescence intensity at a given concentration of the ligand, K d is the dissociation constant, and A = K dΔ Fmax. We used equation (1) to calculate the dissociation constant (K d) for binding of mannose, glucose and NAG to mASAL and ASAL.

Lipaphis erysimi = test: Insect bioassay with artificial diet; type: in vivo; conditions: second instar nymphs, survival recorded for 72 h, Probit analysis
Description: Insect bioassays were conducted using an artificial diet [9]–[11]. Twenty second instar nymphs of Lipaphis erysimi were used in multiple sets. Polycarbonate petriplates (perforated for air passage at the bottom) were used as a bioassay cage. Nymphs were released into the plates, and the upper edges of the plates were covered with fully stretched parafilm. A modified synthetic diet mixture of 200 µl, supplemented with different concentrations of ASAL and mASAL (5, 10, 15, 20, 25 µg/ml), was dispensed on the stretched parafilm membrane. Another Parafilm membrane was stretched onto this in order to form a pouch. For control plates, 20-mM TrisCl (pH 7.4) was added to the artificial diet instead of experimental proteins. For another set of control experiments, aphids were fed with only 20 mM TrisCl (pH 7.4) without the artificial diet. Each set of experiments for each dose was repeated four times. Data regarding the numbers of nymphs surviving were recorded at 12-h intervals for 72 h. The LC50 values for the toxicity against mustard aphids were determined by Probit analysis ( Table 2 ).

rabbit erythrocytes = test: Hemagglutination assay; type: cell-based; conditions: 50 to 6.25 µg/ml, 2% rabbit erythrocytes, 1 hour at 37°C
Description: Blood was collected from the rabbit into a syringe pre-filled with 500-µl 0.9% NaCl solution and the blood was immediately transferred to a culture tube pre-filled with 0.9% saline. Subsequently, the erythrocyte solution was prepared by repeated washing with 0.9% saline and spun at 2500 g for 10 minutes at 4°C. After each cycle, the supernatant was carefully removed. […] The erythrocytes were resuspended in 0.9% saline as a 2% (3.5×10^8 cells/ml) cell suspension. Hemagglutination activity of the purified mASAL and /or ASAL was assayed in a 96-well microtiter U-plate according to a 2-fold serial dilution procedure (50, 25, 12.5, 6.25 µg/ml). The samples were diluted with PBS (137 mM NaCl, 2.7 mM KCl, 10 mM Na2HPO4, 1.8 mM KH2PO4; pH 7.4) at which point 50 µl of protein from each dilution was mixed with 50 µl of a 2% suspension of rabbit erythrocytes.

R. solani hyphae = test: Immunolocalization assay with anti-ASAL antibody; type: cell-based, Rhizoctonia solani; conditions: 4 µg protein, 40 hours at 25°C
R. solani = conditions: 4 µg protein, 40 hours at 25°C
F. oxysporum = conditions: 4 µg protein, 40 hours at 25°C
A. brassicicola = conditions: 4 µg protein, 40 hours at 25°C
[1] = Man9GlcNAc2Asn, at 25°C; cited from earlier work
[2] = biological target: the molecule itself; test: SEC; Biosep-SEC-S-2000 column, 0.1 M sodium phosphate pH 6.8, 2 ml/min; native ASAL as control; data not shown

For OC[C@H]1OC(O)[C@H](O)[C@@H](O)[C@@H]1O (stereo partly drawn) [D-glucose], the Kd (ASAL) was 140 nM and the Kd (mASAL) was 160 nM.

Molecule OC[C@H]1OC(O)[C@@H](O)[C@@H](O)[C@@H]1O (stereo partly drawn) [Mannose, D-mannose] has a Kd (ASAL) of 60 nM and a Kd (mASAL) of 120 nM.

Work on CC(=O)N[C@H]1C(O)O[C@H](CO)[C@@H](O)[C@@H]1O (some centres unmarked) [NAG, N-acetyl glucosamine] yielded a Kd (ASAL) of 300 nM and a Kd (mASAL) of 110 nM.

In the case of Allium sativum leaf agglutinin [ASAL], the LC50 value (Lipaphis erysimi) is reported as 20.7 µg/mL, the hemagglutination activity (rabbit erythrocytes) is reported as “agglutinated cells form a carpet” and the “binding to fungal membrane (FITC green fluorescence)” value (R. solani hyphae) is reported as “absence of any signal; also recorded: no signals were generated”. For the same molecule, the “propidium iodide uptake (fluorescence, membrane permeabilization)” value (shortened to “propidium iodide uptake”) (R. solani) was “excluded propidium iodide”, the “propidium iodide uptake” value (F. oxysporum) was “excluded propidium iodide” and the “propidium iodide uptake” value (A. brassicicola) was “excluded propidium iodide”. The “binding affinity Ka” value [1] was 1.2e+06 M⁻¹.

B1: Allium sativum leaf agglutinin (natural protein)
chain: RNLLTNGEGLYAGQSLDVEQYKFIMQDDCNLVLYEYSTPIWASNTGVTGKNGCRAVMQRDGNFVVYDVNGRPVWASNSVRGNGNYILVLQKDRNVVIYGSDIWSTGT
In the case of B1, the “stoichiometry N” value [2] is reported as 2.
